Assay results published in ChEMBL document CHEMBL5729675, “Sulfonamide compound or salt thereof” (2023).

Target: Ribonucleotide reductase (Homo sapiens, UniProt P23921+Q7LG56)
Experiment: Human RNR Inhibition Effect: The inhibitory activity against the ribonucleotide reduction reaction (hereinafter referred to as RNR reaction) of the test compound was determined by measuring the formation of deoxycytidine diphosphate (hereinafter referred to as dCDP) from cytidine diphosphate (hereinafter referred to as CDP) by the following method.Human M1 subunit and human M2 subunit (mutant …

Chain of Ribonucleotide reductase (P23921 whole entry, looked up): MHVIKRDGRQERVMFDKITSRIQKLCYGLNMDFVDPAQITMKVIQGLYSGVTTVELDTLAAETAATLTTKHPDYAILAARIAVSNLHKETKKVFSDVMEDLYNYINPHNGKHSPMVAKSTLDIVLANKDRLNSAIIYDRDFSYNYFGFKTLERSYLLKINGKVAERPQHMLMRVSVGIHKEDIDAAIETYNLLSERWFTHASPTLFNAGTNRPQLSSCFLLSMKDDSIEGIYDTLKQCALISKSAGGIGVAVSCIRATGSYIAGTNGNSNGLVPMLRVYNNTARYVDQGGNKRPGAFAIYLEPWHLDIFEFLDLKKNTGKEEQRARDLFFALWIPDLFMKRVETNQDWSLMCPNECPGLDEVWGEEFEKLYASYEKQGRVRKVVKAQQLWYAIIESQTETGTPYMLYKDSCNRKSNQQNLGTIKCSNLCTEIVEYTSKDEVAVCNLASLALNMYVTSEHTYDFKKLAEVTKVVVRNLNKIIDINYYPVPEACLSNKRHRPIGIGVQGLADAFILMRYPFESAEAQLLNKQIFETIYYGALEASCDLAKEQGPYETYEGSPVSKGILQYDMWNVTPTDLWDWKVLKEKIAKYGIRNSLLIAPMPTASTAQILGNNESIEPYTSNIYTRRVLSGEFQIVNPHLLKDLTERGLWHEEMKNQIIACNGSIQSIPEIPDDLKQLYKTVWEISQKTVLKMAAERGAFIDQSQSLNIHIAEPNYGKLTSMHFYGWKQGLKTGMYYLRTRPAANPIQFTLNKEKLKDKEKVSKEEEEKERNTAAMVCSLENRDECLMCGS
Chain of Ribonucleotide reductase (Q7LG56 whole entry, looked up): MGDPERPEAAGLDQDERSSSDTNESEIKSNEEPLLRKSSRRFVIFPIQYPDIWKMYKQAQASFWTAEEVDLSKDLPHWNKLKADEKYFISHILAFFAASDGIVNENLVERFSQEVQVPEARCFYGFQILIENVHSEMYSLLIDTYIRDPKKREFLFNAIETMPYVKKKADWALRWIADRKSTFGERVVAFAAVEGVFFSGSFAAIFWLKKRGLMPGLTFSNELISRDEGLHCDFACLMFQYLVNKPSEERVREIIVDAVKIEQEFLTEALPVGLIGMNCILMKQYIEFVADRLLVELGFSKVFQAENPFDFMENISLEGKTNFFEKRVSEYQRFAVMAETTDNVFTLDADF

Row | Structure (SMILES) | IC50 [nM]
1 | COc1cc(Cl)ccc1S(=O)(=O)N[C@H](c1n[nH]c(=O)o1)[C@H](C)c1c(F)ccc(-c2cccnc2)c1C | 340
2 | COc1cc(S(=O)(=O)N[C@H](c2n[nH]c(=O)o2)[C@H](C)c2c(F)ccc(C)c2C)c(C(N)=O)cc1Cl | 100
3 | COc1cc(Cl)ccc1S(=O)(=O)N[C@H](c1n[nH]c(=O)o1)[C@H](C)c1c(F)ccc(-c2cnn(C)c2)c1C | 90
4 | C[C@H](c1cccc2c1-c1ccccc1C2)[C@H](NS(=O)(=O)c1ccc(Br)cn1)c1n[nH]c(=O)o1 | 850
5 | COc1cc(Cl)ccc1S(=O)(=O)N[C@H](c1n[nH]c(=O)o1)[C@H](C)c1c(F)ccc(-c2cc[nH]n2)c1C | 290
6 | Cc1c(Br)ccc(F)c1[C@@H](C)[C@H](NS(=O)(=O)c1ccc(Cl)c2c1OCCC2(C)N)c1n[nH]c(=O)o1 (stereo partly drawn) | 60
7 | Cc1c(Cl)ccc(F)c1[C@@H](C)[C@H](NS(=O)(=O)c1ccc(Br)cc1C(N)=O)c1n[nH]c(=O)o1 | 150
8 | Cc1ccc(F)c([C@@H](C)[C@H](NS(=O)(=O)c2ccc(Cl)cc2C(N)=O)c2n[nH]c(=O)o2)c1 | 240
9 | COc1ncc(-c2ccc(F)c([C@@H](C)[C@H](NS(=O)(=O)c3ccc(Cl)cc3OC)c3n[nH]c(=O)o3)c2C)cn1 | 280
10 | Cc1c(C2CC2)ccc(F)c1[C@@H](C)[C@H](NS(=O)(=O)c1ccc(Cl)cc1C(N)=O)c1n[nH]c(=O)o1 | 160
11 | Cc1cccc([C@@H](C)[C@H](NS(=O)(=O)c2ccc(Cl)c3c2OCC=C3)c2n[nH]c(=O)o2)c1C | 790
12 | Cc1ccc(F)c([C@@H](C)[C@H](NS(=O)(=O)c2cc(C(=O)O)c(Cl)cc2C(N)=O)c2n[nH]c(=O)o2)c1C | 190
13 | CC(O)c1c(Cl)ccc(S(=O)(=O)N[C@H](c2n[nH]c(=O)o2)[C@H](C)c2cccc3c2CCC3)c1Cl (stereo partly drawn) | 170
14 | Cc1c(Cl)ccc(F)c1[C@@H](C)[C@H](NS(=O)(=O)c1ncc(Br)cc1C(N)=O)c1n[nH]c(=O)o1 | 70
15 | COc1ccc(-c2cc(S(=O)(=O)N[C@H](c3n[nH]c(=O)o3)[C@H](C)c3c(F)ccc(C)c3C)ccc2Cl)cc1 | 720
16 | Cc1ccc(F)c([C@@H](C)[C@H](NS(=O)(=O)c2ccc3c(c2)C(C)(O)CCC3)c2n[nH]c(=O)o2)c1C (stereo partly drawn) | 360
17 | Cc1ccc(F)c([C@@H](C)[C@H](NS(=O)(=O)c2ccc(Cl)c3c2OCC(=O)N3CCO)c2n[nH]c(=O)o2)c1C | 130
18 | Cc1ccc(F)c([C@@H](C)[C@@H](c2n[nH]c(=O)o2)N(C)S(=O)(=O)c2ccc(Cl)cc2C(N)=O)c1C | 80
19 | Cc1c(-c2cnn(C)c2)ccc(F)c1[C@@H](C)[C@H](NS(=O)(=O)c1ccc(Cl)cc1C(N)=O)c1n[nH]c(=O)o1 | 170
20 | Cc1ccc(F)c([C@@H](C)[C@H](NS(=O)(=O)c2ccc(Cl)c3c2OCC(=O)N3CC(F)F)c2n[nH]c(=O)o2)c1C | 130
21 | Cc1ccc(S(=O)(=O)N[C@H](c2n[nH]c(=O)o2)[C@H](C)c2c(F)ccc(C)c2C)c(C(N)=O)c1 | 140
22 | COc1cc(N)ccc1S(=O)(=O)N[C@H](c1n[nH]c(=O)o1)[C@H](C)c1cccc2cccc(C)c12 | 510
23 | Cc1ccc(F)c([C@@H](C)[C@H](NS(=O)(=O)c2ccc(Cl)c(C(=O)N3CCC4(COC4)C3)n2)c2n[nH]c(=O)o2)c1C | 130

Row | Structure (SMILES) | IC50 [nM]
24 | Cc1ccc(F)c([C@@H](C)[C@H](NS(=O)(=O)c2ccc(Cl)c(C(=O)N3CCC4(CCC4)C3)n2)c2n[nH]c(=O)o2)c1C | 180
25 | CNC(=O)c1nc(S(=O)(=O)N[C@H](c2n[nH]c(=O)o2)[C@H](C)c2c(F)ccc(C)c2C)ccc1Cl | 60
26 | CC(=O)c1cc(Cl)ccc1S(=O)(=O)N[C@H](c1n[nH]c(=O)o1)[C@H](C)c1c(F)ccc(C)c1C | 270
27 | C[C@H](c1cccc2c1CCC2)[C@H](NS(=O)(=O)c1ccc(F)c(C(C)(C)O)c1F)c1n[nH]c(=O)o1 | 550
28 | COC(=O)c1cc(Cl)cnc1S(=O)(=O)N[C@H](c1n[nH]c(=O)o1)[C@H](C)c1c(F)ccc(C)c1C | 340
29 | Cc1ccc(F)c([C@@H](C)[C@H](NS(=O)(=O)c2ccc(Cl)c3c2C(=O)CCC3)c2n[nH]c(=O)o2)c1C | 240
30 | CC(=O)OC1(C(F)(F)F)CCOc2c1cccc2S(=O)(=O)N[C@H](c1n[nH]c(=O)o1)[C@H](C)c1c(F)ccc(C)c1C (stereo partly drawn) | 270
31 | COc1cc(Cl)ccc1S(=O)(=O)N[C@H](c1n[nH]c(=O)o1)[C@H](C)c1c(F)ccc(-c2cnc3c(c2)OCCN3C)c1C | 220
32 | Cc1ccc(F)c([C@@H](C)[C@H](NS(=O)(=O)c2cc(F)c(Cl)cc2C(=O)O)c2n[nH]c(=O)o2)c1C | 960
33 | Cc1ccc(F)c([C@@H](C)[C@H](NS(=O)(=O)c2ccc([N+](=O)[O-])cc2)c2n[nH]c(=O)o2)c1C | 270
34 | Cc1cccc2cccc([C@@H](C)[C@H](NS(=O)(=O)c3ccc(Cl)c4c3OCCC4(F)F)c3n[nH]c(=O)o3)c12 | 280
35 | COC(=O)c1nc(S(=O)(=O)N[C@H](c2n[nH]c(=O)o2)[C@H](C)c2c(F)ccc(C)c2C)ccc1Cl | 60
36 | Cc1ccc(F)c([C@@H](C)[C@H](NS(=O)(=O)c2cccc3c2OCCN3)c2n[nH]c(=O)o2)c1C | 420
37 | Cc1ccc(F)c([C@@H](C)[C@H](NS(=O)(=O)c2cnc(Cl)cc2C(N)=O)c2n[nH]c(=O)o2)c1C | 130
38 | Cc1ccc(F)c([C@@H](C)[C@H](NS(=O)(=O)c2cc(-c3nnco3)ccc2C(N)=O)c2n[nH]c(=O)o2)c1C | 90
39 | Cc1c(Br)ccc(F)c1[C@@H](C)[C@H](NS(=O)(=O)c1ccc(C(F)(F)F)cc1C(N)=O)c1n[nH]c(=O)o1 | 200
40 | COc1c(S(=O)(=O)N[C@H](c2n[nH]c(=O)o2)[C@H](C)c2c(F)ccc(C)c2C)ccc(Cl)c1C(C)OC(C)=O (stereo partly drawn) | 170
41 | COc1cc(Cl)ccc1S(=O)(=O)N[C@H](c1n[nH]c(=O)o1)[C@H](C)c1c(C)c(C)cc(F)c1F | 160
42 | Cc1c(Br)ccc(F)c1[C@@H](C)[C@H](NS(=O)(=O)c1ccc(Br)cc1C(N)=O)c1n[nH]c(=O)o1 | 130
43 | Cc1ccc(F)c([C@@H](C)[C@H](NS(=O)(=O)c2ccc(Cl)c(C(=O)N(C)C)n2)c2n[nH]c(=O)o2)c1C | 80
44 | Cc1ccc(F)c([C@@H](C)[C@H](NS(=O)(=O)c2ccc(Cl)c3c2OCC(=O)N3C)c2n[nH]c(=O)o2)c1C | 100
45 | Cc1ccc(F)c([C@@H](C)[C@H](NS(=O)(=O)c2ccc(Cl)c(S(N)(=O)=O)c2)c2n[nH]c(=O)o2)c1C | 810
46 | C[C@H](c1c(F)ccc2ccccc12)[C@H](NS(=O)(=O)c1ccc(Br)cc1C(N)=O)c1n[nH]c(=O)o1 | 100

Row | Structure (SMILES) | IC50 [nM]
47 | COc1cc(Cl)ccc1S(=O)(=O)N[C@H](c1n[nH]c(=O)o1)C(C)c1c(F)c(F)cc(C)c1Br (stereo partly drawn) | 420
48 | Cc1ccc(F)c([C@@H](C)[C@H](NS(=O)(=O)c2ccc(Cl)cc2-c2ccno2)c2n[nH]c(=O)o2)c1C | 230
49 | Cc1ccc(F)c([C@@H](C)[C@H](NS(=O)(=O)c2c(F)cc(Cl)cc2C(N)=O)c2n[nH]c(=O)o2)c1C | 140
50 | CC(=O)NC1CCOc2c(S(=O)(=O)N[C@H](c3n[nH]c(=O)o3)[C@H](C)c3c(F)ccc(C)c3C)ccc(Cl)c21 (stereo partly drawn) | 100
51 | Cc1ccc(F)c([C@@H](C)[C@H](NS(=O)(=O)c2ccc(Cl)nc2C(N)=O)c2n[nH]c(=O)o2)c1C | 190
52 | Cc1ccc(F)c([C@@H](C)[C@H](NS(=O)(=O)c2ccc3c(c2)C(C)(O)CCO3)c2n[nH]c(=O)o2)c1C (stereo partly drawn) | 180
53 | COc1cc(Cl)ccc1S(=O)(=O)N[C@H](c1n[nH]c(=O)o1)[C@H](C)c1c(F)ccc(C)c1C | 140
54 | Cc1ccc(F)c([C@@H](C)[C@H](NS(=O)(=O)c2ccc(Cl)c3c2C(O)CCC3)c2n[nH]c(=O)o2)c1C (stereo partly drawn) | 910
55 | COc1cc(Cl)ccc1S(=O)(=O)N[C@H](c1n[nH]c(=O)o1)[C@H](C)c1cccc2cccc(C)c12 | 240
56 | CC(=O)OC(C)c1nc(S(=O)(=O)N[C@H](c2n[nH]c(=O)o2)[C@H](C)c2cccc3c2CCC3)ccc1Cl (stereo partly drawn) | 210
57 | Cc1ccc(F)c([C@@H](C)[C@H](NS(=O)(=O)c2ccc(Cl)cc2N)c2n[nH]c(=O)o2)c1C | 230
58 | C[C@H](c1cccc2c1CCC2)[C@H](NS(=O)(=O)c1ccc(Br)c(C(C)(C)O)c1)c1n[nH]c(=O)o1 | 640
59 | Cc1ccc(F)c([C@@H](C)[C@H](NS(=O)(=O)c2ncc(Cl)cc2C(N)=O)c2n[nH]c(=O)o2)c1C | 40
60 | COC(=O)c1c(Cl)ccc(S(=O)(=O)N[C@H](c2n[nH]c(=S)o2)[C@H](C)c2cccc3c2CCC3)c1Cl | 310
61 | C[C@H](c1c(F)ccc2ccccc12)[C@H](NS(=O)(=O)c1ccc(Cl)c2c1OCCC2F)c1n[nH]c(=O)o1 (stereo partly drawn) | 160
62 | COc1cc(Cl)ccc1S(=O)(=O)N[C@H](c1n[nH]c(=O)o1)[C@H](C)c1c(F)ccc(-c2cnn(C3CCC3)c2)c1C | 220
63 | Cc1ccc(F)c([C@@H](C)[C@H](NS(=O)(=O)c2ccc(Cl)cc2C(=O)O)c2n[nH]c(=O)o2)c1C | 180
64 | COc1cc(N)ccc1S(=O)(=O)N[C@H](c1n[nH]c(=O)o1)[C@H](C)c1cccc2c1CCC2 | 730
65 | Cc1ccc(F)c([C@@H](C)[C@H](NS(=O)(=O)c2ccccc2C(=O)NO)c2n[nH]c(=O)o2)c1C | 310
66 | Cc1ccc(F)c([C@@H](C)[C@H](NS(=O)(=O)c2ccccc2C(N)=O)c2n[nH]c(=O)o2)c1C | 260
67 | Cc1ccc(F)c([C@@H](C)[C@H](NS(=O)(=O)c2ccc(Br)cc2C(N)=O)c2n[nH]c(=S)o2)c1C | 130
68 | Cc1ccc(F)c([C@@H](C)[C@H](NS(=O)(=O)c2c(F)cc(F)c3c2OCCC3O)c2n[nH]c(=O)o2)c1C (stereo partly drawn) | 230
